Drawing on PMC9927415, “Tyrosine Kinase Inhibitors Display Potent Activity against Cryptosporidium parvum” (Microbiology Spectrum, 2022), this text covers inhibition for ten compounds.

The target of assay [1] is T1, panel of 203 kinases (Homo sapiens, UniProt Q96NX5).
T1 construct: purchased DiscoverX (KINOMEscan)
As to the kind of experiment: KINOMEscan competitive binding, whole panel. The settings on record: 10 µM, n=1; kinase CAMK1G; read-out: Percent inhibition CAMK1G. An excerpt:
(§1) The kinases were expressed as fusions to T7 bacteriophage. This is a sensitive, competitive binding assay where test compounds were used to displace immobilized ATP-site binding probe ligands from kinases of interest. The amount of kinase that remained bound to the immobilized probe ligands on the solid support was quantified. Percentage inhibition data were was plotted on kinome trees using the web-based tool KinMap (http://www.kinhub.org/kinmap) ([60]).

In assay [2] the target is T2, panel of 203 kinases (Homo sapiens, UniProt P28482).
T2 construct: purchased DiscoverX (KINOMEscan)
The experiment in a line: KINOMEscan competitive binding, whole panel. Particulars: 10 µM, n=1; kinase ERK2; read-out: Percent inhibition ERK2.
Description: as §1

Assay [3] concerns the target T3, panel of 203 kinases (Homo sapiens, UniProt O43293).
T3 construct: purchased DiscoverX (KINOMEscan)
As to the kind of experiment: KINOMEscan competitive binding, whole panel. The settings on record: 10 µM, n=1; kinase DAPK3; read-out: Percent inhibition DAPK3.
Description: as §1

Assay [4] has as its target T4, panel of 203 kinases (Homo sapiens, UniProt Q8TD19).
T4 construct: purchased DiscoverX (KINOMEscan)
T4 sequence (Q8TD19 1-979): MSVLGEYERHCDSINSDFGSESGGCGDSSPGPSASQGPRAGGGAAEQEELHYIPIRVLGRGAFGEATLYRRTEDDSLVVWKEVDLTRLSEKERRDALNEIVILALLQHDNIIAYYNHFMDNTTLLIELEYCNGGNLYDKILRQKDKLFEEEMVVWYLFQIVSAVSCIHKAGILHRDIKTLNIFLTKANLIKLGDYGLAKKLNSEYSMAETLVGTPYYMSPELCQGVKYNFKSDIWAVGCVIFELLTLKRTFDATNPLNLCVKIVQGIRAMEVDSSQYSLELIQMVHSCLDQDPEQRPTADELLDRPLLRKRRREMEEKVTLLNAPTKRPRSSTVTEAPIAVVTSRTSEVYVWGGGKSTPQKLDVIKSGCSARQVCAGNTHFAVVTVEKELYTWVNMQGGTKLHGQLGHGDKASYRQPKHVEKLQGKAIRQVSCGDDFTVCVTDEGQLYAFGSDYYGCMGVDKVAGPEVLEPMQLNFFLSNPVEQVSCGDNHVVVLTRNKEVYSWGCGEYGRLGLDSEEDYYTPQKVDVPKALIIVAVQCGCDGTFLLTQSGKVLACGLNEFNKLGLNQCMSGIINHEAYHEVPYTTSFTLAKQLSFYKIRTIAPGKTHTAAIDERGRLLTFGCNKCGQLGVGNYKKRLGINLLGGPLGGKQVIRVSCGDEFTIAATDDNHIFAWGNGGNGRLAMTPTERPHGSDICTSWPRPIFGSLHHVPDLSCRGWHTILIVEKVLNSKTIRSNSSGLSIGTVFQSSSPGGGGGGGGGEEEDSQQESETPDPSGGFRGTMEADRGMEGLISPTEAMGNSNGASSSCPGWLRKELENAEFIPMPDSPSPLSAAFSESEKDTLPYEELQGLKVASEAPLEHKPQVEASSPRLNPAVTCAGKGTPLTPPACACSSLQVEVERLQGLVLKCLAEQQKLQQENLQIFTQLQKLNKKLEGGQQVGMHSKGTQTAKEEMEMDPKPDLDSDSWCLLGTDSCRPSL
As to the kind of experiment: KINOMEscan competitive binding, whole panel. The settings on record: 10 µM, n=1; kinase NEK9; read-out: Percent inhibition NEK9.
Description: as §1

The target in assay [5] is T5, panel of 203 kinases (Homo sapiens, UniProt P51813).
T5 construct: purchased DiscoverX (KINOMEscan)
T5 sequence (P51813 1-675): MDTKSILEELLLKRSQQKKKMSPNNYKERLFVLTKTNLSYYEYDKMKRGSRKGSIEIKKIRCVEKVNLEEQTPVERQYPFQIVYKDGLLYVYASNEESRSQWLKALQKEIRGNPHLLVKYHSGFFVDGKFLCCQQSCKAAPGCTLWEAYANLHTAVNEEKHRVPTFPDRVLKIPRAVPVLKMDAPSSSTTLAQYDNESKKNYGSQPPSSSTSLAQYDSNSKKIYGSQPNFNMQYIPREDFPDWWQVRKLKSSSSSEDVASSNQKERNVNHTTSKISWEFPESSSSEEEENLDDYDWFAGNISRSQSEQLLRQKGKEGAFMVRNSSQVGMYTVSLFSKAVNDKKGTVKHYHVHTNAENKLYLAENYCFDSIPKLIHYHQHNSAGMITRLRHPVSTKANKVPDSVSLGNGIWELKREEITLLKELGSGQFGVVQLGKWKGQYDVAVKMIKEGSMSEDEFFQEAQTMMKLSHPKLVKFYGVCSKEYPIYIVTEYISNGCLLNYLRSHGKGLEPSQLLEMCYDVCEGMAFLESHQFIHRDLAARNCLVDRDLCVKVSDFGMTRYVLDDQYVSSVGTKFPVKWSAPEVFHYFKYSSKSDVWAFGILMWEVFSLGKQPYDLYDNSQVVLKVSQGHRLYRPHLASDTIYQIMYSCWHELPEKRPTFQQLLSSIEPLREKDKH
As to the kind of experiment: KINOMEscan competitive binding, whole panel. The settings on record: 10 µM, n=1; kinase BMX; read-out: Percent inhibition BMX.
Description: as §1

Assay [6] has as its target T6, panel of 203 kinases (Homo sapiens, UniProt Q8NI60).
T6 construct: purchased DiscoverX (KINOMEscan)
The experiment in a line: KINOMEscan competitive binding, whole panel. Particulars: 10 µM, n=1; kinase ADCK3; read-out: Percent inhibition ADCK3.
Description: as §1

In assay [7] the target is T7, panel of 203 kinases (Homo sapiens, UniProt Q9Y243).
T7 construct: purchased DiscoverX (KINOMEscan)
The experiment in a line: KINOMEscan competitive binding, whole panel. Particulars: 10 µM, n=1; kinase AKT3; read-out: Percent inhibition AKT3.
Description: as §1

The next assay concerns the target T8, TRKB (Homo sapiens, UniProt Q16620).
T8 construct: purchased DiscoverX (KINOMEscan)
The experiment in a line: KINOMEscan competitive binding. Particulars: n=1, read-out: Percent inhibition, TRKB.

SMILES strings stand for the structures.

T2 sequence (P28482 whole entry): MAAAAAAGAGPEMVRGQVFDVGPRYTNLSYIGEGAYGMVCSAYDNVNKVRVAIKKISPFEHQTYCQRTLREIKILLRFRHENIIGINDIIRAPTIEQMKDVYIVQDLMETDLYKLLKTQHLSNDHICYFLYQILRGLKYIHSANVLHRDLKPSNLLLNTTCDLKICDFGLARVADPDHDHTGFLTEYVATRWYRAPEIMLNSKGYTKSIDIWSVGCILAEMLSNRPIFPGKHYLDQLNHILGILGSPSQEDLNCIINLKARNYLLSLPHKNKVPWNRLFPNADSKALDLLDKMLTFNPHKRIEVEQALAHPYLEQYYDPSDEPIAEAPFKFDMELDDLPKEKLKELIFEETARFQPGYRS
T8 sequence (Q16620 32-822): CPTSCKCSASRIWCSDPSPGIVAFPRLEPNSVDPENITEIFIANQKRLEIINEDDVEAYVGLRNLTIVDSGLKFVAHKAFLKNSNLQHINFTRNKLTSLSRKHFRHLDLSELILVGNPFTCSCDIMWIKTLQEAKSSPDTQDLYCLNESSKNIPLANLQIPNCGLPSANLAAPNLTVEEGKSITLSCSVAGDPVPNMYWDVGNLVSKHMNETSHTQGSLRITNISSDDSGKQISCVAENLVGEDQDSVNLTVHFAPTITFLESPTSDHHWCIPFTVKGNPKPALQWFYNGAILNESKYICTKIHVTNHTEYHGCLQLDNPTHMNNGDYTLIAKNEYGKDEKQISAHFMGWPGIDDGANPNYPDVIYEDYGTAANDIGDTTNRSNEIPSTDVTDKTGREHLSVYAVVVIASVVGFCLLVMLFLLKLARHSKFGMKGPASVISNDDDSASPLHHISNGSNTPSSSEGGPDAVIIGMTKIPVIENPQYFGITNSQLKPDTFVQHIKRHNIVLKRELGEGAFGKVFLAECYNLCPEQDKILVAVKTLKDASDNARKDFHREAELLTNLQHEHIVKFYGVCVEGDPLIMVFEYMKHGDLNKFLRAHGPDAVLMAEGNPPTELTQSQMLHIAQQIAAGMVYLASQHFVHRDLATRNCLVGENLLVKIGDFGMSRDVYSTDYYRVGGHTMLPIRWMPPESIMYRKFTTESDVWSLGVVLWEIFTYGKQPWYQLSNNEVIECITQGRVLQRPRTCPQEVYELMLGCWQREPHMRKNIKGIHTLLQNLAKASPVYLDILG
T6 sequence (Q8NI60 163-647): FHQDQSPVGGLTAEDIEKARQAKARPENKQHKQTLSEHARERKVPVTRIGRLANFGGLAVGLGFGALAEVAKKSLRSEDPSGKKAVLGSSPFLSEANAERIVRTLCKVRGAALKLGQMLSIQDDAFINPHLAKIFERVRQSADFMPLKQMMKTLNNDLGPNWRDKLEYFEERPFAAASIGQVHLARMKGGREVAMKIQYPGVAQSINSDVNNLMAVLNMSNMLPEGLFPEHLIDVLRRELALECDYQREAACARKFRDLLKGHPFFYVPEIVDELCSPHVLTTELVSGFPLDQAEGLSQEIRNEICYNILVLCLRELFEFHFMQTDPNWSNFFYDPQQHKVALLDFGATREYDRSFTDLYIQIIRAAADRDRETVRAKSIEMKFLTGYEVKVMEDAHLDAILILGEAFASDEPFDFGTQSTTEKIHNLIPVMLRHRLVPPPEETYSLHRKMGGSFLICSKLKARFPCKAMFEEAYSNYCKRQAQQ
T3 sequence (O43293 whole entry): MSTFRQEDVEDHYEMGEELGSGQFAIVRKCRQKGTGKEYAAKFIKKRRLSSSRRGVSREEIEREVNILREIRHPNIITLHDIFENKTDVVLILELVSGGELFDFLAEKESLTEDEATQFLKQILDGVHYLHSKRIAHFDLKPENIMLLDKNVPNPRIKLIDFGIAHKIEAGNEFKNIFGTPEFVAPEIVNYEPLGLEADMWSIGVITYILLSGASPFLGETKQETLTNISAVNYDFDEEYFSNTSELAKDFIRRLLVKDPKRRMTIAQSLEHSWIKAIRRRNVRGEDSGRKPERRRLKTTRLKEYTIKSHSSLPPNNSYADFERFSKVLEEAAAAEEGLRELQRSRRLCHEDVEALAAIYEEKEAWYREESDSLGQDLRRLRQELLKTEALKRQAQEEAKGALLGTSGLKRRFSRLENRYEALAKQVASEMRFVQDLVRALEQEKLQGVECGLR
T7 sequence (Q9Y243 whole entry): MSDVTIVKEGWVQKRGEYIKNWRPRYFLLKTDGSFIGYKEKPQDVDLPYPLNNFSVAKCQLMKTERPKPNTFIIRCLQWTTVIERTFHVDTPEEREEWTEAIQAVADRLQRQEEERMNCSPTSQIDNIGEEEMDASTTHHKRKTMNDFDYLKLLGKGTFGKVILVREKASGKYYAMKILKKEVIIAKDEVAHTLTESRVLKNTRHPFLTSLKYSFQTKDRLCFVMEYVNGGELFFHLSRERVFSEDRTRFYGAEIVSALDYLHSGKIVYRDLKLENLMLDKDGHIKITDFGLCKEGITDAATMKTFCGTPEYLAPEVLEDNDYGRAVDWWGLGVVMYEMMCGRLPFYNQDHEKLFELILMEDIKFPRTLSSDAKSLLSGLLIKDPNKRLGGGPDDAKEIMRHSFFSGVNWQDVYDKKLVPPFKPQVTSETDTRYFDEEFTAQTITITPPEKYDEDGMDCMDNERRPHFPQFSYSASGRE
T1 sequence (Q96NX5 whole entry): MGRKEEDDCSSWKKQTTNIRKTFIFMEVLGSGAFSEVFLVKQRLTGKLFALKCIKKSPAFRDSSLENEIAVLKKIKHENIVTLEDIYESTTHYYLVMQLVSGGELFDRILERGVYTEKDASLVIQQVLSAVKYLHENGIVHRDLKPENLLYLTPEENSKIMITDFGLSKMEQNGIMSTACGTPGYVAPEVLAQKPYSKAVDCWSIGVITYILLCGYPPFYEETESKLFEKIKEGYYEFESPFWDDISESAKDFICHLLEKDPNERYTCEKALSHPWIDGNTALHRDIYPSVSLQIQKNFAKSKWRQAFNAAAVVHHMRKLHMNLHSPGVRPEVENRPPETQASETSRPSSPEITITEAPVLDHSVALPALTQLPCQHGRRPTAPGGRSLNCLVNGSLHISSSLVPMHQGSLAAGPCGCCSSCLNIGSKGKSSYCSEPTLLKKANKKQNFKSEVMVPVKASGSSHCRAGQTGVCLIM

As a reminder, the inhibition is the share of the control response that was lost under treatment. For the compound `CN1CCN(c2ccc(Nc3nccc(-c4cnn5ncccc45)n3)cc2C#N)CC1` [Compound 1], the inhibition at 10 µM at panel of 203 kinases [1] was 90.5%; on panel of 203 kinases [2], 100%; at panel of 203 kinases [3], 98.5%; on panel of 203 kinases [4], 99.2%; at panel of 203 kinases [5] it was 0%; at panel of 203 kinases [6], 93.7%. The inhibition at 10 µM stood at 0% at panel of 203 kinases [7] and 96.5% at TRKB.
As for `COc1ccc(Nc2nccc(-c3cnn4ncccc34)n2)cc1` [Compound 2], the inhibition at 10 µM is 71.5% at panel of 203 kinases [1]; 99.2% at panel of 203 kinases [2]; 0% at panel of 203 kinases [3]; 100% on panel of 203 kinases [4]; 0% at panel of 203 kinases [5]; 99.5% at panel of 203 kinases [6]. Further, the inhibition at 10 µM on panel of 203 kinases [7] and at TRKB was 0% in each case.
As for `Cc1ccc(O)cc1Nc1ccnc(Nc2cccc(C(N)=O)c2)n1` [Compound 3], the inhibition at 10 µM on panel of 203 kinases [1], at panel of 203 kinases [2], at panel of 203 kinases [3], at panel of 203 kinases [4], at panel of 203 kinases [6] and on panel of 203 kinases [7] was 0% in each case. For the same compound, at TRKB, the inhibition at 10 µM came out at 0%.
For the compound `Cc1ccc(O)cc1N(C)c1ccnc(Nc2cccc(S(N)(=O)=O)c2)n1` [Compound 4], the inhibition at 10 µM amounted to 0% on panel of 203 kinases [1]; 64% on panel of 203 kinases [2]; 0% on panel of 203 kinases [3]; 0% on panel of 203 kinases [4]; 100% at panel of 203 kinases [5]; 91.1% on panel of 203 kinases [6]. The inhibition at 10 µM at panel of 203 kinases [7] came to 0%; on TRKB it was 91.7%.
`Fc1cccc(COc2ccc(Nc3ncnc4c3CN(CCN3CCOCC3)CC4)cc2Cl)c1` [Compound 6]: the inhibition at 10 µM at panel of 203 kinases [1], on panel of 203 kinases [2], on panel of 203 kinases [3], on panel of 203 kinases [4], on panel of 203 kinases [5] and at panel of 203 kinases [6] was 0% in each case. Moreover, the inhibition at 10 µM at panel of 203 kinases [7] and at TRKB was 0% throughout.
Regarding `COc1cc(Nc2nccc(-c3sc(N)nc3-c3cccc(NC(=O)c4c(F)cccc4F)c3)n2)cc(OC)c1OC` [Compound 7], the inhibition at 10 µM was 69.4% at panel of 203 kinases [1]; 100% at panel of 203 kinases [2]; 0% on panel of 203 kinases [3]; 88.9% on panel of 203 kinases [4]; 100% at panel of 203 kinases [5]; 100% on panel of 203 kinases [6]. The inhibition at 10 µM at panel of 203 kinases [7] and on TRKB was 0% each time.
Take `C[C@@H](Oc1cc(-c2cnc3ccccn23)sc1C(N)=O)c1ccccc1Cl` [Compound 8]: the inhibition at 10 µM at panel of 203 kinases [1] was determined as 0%; on panel of 203 kinases [2], 80.6%; on panel of 203 kinases [3] it was 89.3%; on panel of 203 kinases [4], 94.7%; on panel of 203 kinases [5], 0%; on panel of 203 kinases [6], 0%. Besides, the inhibition at 10 µM at panel of 203 kinases [7] and on TRKB was 0% each time.
Regarding `c1ccc(COc2cccc(-c3ccnc4[nH]ccc34)c2)cc1` [Compound 9], the inhibition at 10 µM at panel of 203 kinases [1], on panel of 203 kinases [2], at panel of 203 kinases [3], on panel of 203 kinases [4], on panel of 203 kinases [5] and at panel of 203 kinases [6] was 0% in each case. In addition, the inhibition at 10 µM at panel of 203 kinases [7] and on TRKB was 0% each time.
In the case of `Clc1ccc(Nc2ncc(-c3ccccc3)s2)cc1` [Compound 10], the inhibition at 10 µM on panel of 203 kinases [1], on panel of 203 kinases [2], on panel of 203 kinases [3], on panel of 203 kinases [4], on panel of 203 kinases [5] and at panel of 203 kinases [6] was 0% in each case. The inhibition at 10 µM on panel of 203 kinases [7] and on TRKB was 0% each time.
Regarding `Nc1ncc2c(-c3ccncc3)c[nH]c2n1` [Compound 11], the inhibition at 10 µM on panel of 203 kinases [1], on panel of 203 kinases [2], at panel of 203 kinases [3], on panel of 203 kinases [4], at panel of 203 kinases [5] and at panel of 203 kinases [6] was 0% in each case. For the same compound, the inhibition at 10 µM on panel of 203 kinases [7] and on TRKB was 0% each time.
